The record followed here is ChEMBL document CHEMBL3739356, “Combination of 4-anilinoquinazoline, arylurea and tertiary amine moiety to discover novel anticancer agents” (Bioorg Med Chem, 2016).

In series [1] the test system is A549. Briefly: Antiproliferative activity against human A549 cells after 72 hrs by MTT assay. Format: functional, cell-based. Conditions: A549, 72 h.
The next series concerns A-431. As to the kind of experiment: Antiproliferative activity against human A431 cells after 72 hrs by MTT assay. Format: functional, cell-based. Conditions: A-431, 72 h.
A further series relates to Mus musculus. As to the kind of experiment: Toxicity in nude BALB/C mouse assessed as weight loss at 50 mg/kg, po qd for 12 days. The settings on record: in vivo, 288 h. Format: organism-based.
In series [2] the test system is A549. Briefly: Anticancer activity against human A549 cells xenografted in nude BALB/C mouse assessed as decrease in tumor volume at 50 mg/kg, po qd for 12 days. Format: functional, organism-based.
The target of series [3] is Epidermal growth factor receptor (Homo sapiens, UniProt P00533). As to the kind of experiment: Inhibition of wild-type EGFR tyrosine kinase (unknown origin) assessed as ATP level by luminescence analysis.
Series [4] deals with Epidermal growth factor receptor (Homo sapiens, UniProt P00533, L858R). As to the kind of experiment: Inhibition of EGFR tyrosine kinase L858R mutant (unknown origin) assessed as ATP level by luminescence analysis. Format: protein assay.
In series [5] the target is Vascular endothelial growth factor receptor 2 (Homo sapiens, UniProt P35968). As to the kind of experiment: Inhibition of VEGFR-2 (unknown origin) assessed as ATP level by luminescence analysis.

Calls of active or inactive are those of the source. The rule behind the calls is not given here. Bounds are passed on as bounds.

Chain of Vascular endothelial growth factor receptor 2 (P35968 whole entry): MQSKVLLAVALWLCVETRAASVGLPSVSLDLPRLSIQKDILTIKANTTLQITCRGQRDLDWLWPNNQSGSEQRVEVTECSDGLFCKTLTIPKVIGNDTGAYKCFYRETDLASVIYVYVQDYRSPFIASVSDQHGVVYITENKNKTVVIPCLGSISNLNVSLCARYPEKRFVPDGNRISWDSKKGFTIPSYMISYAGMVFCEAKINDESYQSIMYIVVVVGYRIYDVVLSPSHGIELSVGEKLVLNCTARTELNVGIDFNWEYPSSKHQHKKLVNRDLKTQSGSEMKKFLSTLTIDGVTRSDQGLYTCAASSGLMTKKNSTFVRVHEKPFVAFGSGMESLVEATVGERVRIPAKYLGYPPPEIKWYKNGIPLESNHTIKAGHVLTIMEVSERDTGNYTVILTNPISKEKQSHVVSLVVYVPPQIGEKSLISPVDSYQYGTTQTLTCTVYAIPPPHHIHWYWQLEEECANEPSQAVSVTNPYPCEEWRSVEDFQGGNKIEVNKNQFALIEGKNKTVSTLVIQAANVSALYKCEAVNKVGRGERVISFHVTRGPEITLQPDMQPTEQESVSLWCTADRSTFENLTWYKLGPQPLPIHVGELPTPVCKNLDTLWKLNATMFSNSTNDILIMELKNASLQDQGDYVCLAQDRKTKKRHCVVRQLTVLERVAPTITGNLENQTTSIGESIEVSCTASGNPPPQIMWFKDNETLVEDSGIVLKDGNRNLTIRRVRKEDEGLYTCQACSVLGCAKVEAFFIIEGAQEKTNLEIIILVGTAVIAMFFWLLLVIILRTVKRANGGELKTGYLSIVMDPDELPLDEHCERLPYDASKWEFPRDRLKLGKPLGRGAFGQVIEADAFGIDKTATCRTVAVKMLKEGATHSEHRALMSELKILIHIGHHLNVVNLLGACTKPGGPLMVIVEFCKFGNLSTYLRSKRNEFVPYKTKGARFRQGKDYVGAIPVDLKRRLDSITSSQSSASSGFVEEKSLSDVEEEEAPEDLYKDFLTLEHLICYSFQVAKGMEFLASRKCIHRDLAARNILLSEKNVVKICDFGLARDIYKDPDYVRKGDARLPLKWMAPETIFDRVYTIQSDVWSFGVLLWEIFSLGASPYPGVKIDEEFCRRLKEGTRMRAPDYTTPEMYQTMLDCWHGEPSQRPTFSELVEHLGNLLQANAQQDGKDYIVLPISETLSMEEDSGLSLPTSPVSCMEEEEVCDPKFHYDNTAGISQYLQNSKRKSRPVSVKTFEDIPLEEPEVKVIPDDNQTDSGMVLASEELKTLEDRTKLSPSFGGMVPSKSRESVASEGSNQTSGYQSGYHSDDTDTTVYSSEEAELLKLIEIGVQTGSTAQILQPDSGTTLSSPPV
Chain of Epidermal growth factor receptor (Homo sapiens, UniProt P00533, L858R) (P00533 25-1210 L858R limits assumed): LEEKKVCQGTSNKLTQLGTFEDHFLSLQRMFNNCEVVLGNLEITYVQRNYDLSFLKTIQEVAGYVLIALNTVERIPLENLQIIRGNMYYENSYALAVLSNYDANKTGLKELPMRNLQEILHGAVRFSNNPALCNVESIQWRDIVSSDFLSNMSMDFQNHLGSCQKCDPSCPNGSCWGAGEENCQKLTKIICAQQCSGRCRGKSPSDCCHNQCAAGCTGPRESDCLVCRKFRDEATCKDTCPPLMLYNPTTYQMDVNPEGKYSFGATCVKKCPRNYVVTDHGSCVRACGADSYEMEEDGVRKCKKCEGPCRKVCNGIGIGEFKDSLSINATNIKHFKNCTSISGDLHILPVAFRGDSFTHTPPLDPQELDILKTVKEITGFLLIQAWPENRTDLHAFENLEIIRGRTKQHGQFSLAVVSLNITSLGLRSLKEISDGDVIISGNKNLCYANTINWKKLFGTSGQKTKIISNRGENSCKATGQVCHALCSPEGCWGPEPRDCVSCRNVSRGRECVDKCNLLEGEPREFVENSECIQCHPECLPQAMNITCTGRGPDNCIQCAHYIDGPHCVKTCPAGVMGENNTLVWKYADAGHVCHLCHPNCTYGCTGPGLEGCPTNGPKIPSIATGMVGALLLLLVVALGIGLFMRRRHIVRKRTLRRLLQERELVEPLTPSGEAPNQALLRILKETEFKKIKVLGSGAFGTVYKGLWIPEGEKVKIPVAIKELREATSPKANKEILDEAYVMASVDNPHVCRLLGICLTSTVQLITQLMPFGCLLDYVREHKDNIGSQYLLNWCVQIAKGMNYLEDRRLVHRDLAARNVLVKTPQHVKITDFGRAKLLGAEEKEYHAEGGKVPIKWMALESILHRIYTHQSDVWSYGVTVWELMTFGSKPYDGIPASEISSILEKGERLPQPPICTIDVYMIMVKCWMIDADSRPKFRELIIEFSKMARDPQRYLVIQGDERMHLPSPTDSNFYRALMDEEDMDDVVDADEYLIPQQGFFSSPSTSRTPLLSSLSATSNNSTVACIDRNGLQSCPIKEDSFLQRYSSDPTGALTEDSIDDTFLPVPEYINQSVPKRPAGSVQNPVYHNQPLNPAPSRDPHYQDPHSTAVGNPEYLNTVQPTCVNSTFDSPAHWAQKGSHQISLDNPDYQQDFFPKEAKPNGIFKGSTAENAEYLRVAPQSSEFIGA
Chain of Epidermal growth factor receptor (Homo sapiens, UniProt P00533) (P00533 whole entry): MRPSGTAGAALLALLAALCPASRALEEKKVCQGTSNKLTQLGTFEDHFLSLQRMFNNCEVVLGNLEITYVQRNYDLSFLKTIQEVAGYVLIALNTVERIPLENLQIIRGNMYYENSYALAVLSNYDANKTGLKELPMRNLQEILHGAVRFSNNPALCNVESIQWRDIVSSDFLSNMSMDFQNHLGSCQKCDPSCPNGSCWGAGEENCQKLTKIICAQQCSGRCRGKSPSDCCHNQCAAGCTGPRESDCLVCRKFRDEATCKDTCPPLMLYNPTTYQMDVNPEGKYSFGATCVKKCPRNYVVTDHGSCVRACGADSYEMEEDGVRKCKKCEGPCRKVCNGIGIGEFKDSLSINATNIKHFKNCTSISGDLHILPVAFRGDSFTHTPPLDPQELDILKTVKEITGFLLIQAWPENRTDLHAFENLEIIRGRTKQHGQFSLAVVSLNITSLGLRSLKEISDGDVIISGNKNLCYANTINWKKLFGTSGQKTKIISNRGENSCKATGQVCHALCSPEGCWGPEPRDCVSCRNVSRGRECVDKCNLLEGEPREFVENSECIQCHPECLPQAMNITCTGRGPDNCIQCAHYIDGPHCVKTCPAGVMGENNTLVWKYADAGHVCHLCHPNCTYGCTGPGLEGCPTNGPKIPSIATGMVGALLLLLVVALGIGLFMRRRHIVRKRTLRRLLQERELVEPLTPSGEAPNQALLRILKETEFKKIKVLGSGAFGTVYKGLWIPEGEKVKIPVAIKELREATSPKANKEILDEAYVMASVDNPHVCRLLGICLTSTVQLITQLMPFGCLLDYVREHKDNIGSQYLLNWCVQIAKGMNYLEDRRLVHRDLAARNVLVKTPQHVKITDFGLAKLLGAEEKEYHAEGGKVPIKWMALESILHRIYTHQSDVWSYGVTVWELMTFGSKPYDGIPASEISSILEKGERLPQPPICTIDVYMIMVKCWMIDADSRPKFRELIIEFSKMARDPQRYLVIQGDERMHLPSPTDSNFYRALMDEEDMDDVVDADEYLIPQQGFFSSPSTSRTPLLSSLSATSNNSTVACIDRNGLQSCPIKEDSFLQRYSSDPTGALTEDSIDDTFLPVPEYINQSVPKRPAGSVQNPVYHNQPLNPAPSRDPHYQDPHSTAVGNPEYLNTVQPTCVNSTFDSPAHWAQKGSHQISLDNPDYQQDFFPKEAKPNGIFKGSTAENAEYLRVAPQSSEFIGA

On to `O=C(Nc1cccc(CN2CCCCC2)c1)Nc1ccc2ncnc(Nc3cccc(C(F)(F)F)c3)c2c1`, for which the IC50 in the series with A549 [1] stood at 1.06 µM; in the series with A-431 it was 1.33 µM.
For the compound `CCN(CC)c1ccc(NC(=O)Nc2ccc3ncnc(Nc4cccc(C(F)(F)F)c4)c3c2)cc1`, the IC50 in the series on A549 [1] was 3.52 µM; in the series on A-431 it was 6.46 µM.
Regarding `CCN(CC)Cc1ccc(NC(=O)Nc2ccc3ncnc(Nc4cccc(C(F)(F)F)c4)c3c2)cc1`, the results for the IC50 with A549 [1] and with A-431 were 2.07 µM and 3.98 µM, respectively.
For `C#Cc1cccc(Nc2ncnc3ccc(NC(=O)Nc4ccc(CN5CCOCC5)cc4)cc23)c1` the same measures were over 10 µM and over 10 µM.
Turning to `CN1CCN(C(=O)c2ccc(NC(=O)Nc3ccc4ncnc(Nc5ccc(F)c(Cl)c5)c4c3)cc2)CC1`, the IC50 with A549 [1] and in the series on A-431 was over 10 µM throughout.
For `C#Cc1cccc(Nc2ncnc3ccc(NC(=O)Nc4ccc(C(=O)N5CCN(C)CC5)cc4)cc23)c1`, the IC50 in the series with A549 [1] and with A-431 was over 10 µM each time.
Take `C#Cc1cccc(Nc2ncnc3ccc(NC(=O)Nc4ccc(CN(CC)CC)cc4)cc23)c1`: the 50% inhibitory concentration (IC50) in the series with A549 [1] amounted to 2.25 µM; in the series on A-431, 1.24 µM.
Regarding `O=C(Nc1cccc(CN2CCCC2)c1)Nc1ccc2ncnc(Nc3cccc(C(F)(F)F)c3)c2c1`, the concentration for half-maximal inhibition (IC50) came to 0.86 µM in the series on A549 [1] and 1.23 µM in the series with A-431.
For the compound `COc1ccc(Nc2ncnc3ccc(NC(=O)Nc4ccc(CN5CCN(C)CC5)cc4)cc23)cc1Cl`, the IC50 in the series on A549 [1] stood at 3.57 µM; in the series on A-431, 2.01 µM.
As for `C[C@@H](Nc1ncnc2ccc(NC(=O)NCCN3CCN(C)CC3)cc12)c1ccccc1`, the IC50 in the series with A549 [1] and with A-431 was over 10 µM in each case.
In the case of `CN1CCN(Cc2ccc(NC(=O)Nc3ccc4ncnc(Nc5cccc(C(=O)N6CCCC6)c5)c4c3)cc2)CC1`, the IC50 in the series on A549 [1] and in the series on A-431 was over 10 µM in each case.
With `COc1cc2ncnc(Nc3ccc(F)c(Cl)c3)c2cc1OCCCN1CCOCC1` [GEFITINIB], the Activity entry in the series on Mus musculus is “Non-toxic”. In the series with A549 [2], the outcome was Active.
As for `O=C(Nc1ccccc1)Nc1ccc2ncnc(Nc3cccc(C(F)(F)F)c3)c2c1`, the 50% inhibitory concentration (IC50) in the series with A549 [1] and in the series on A-431 was over 10 µM each time.
`CN1CCN(c2ccc(NC(=O)Nc3ccc4ncnc(Nc5cccc(C(F)(F)F)c5)c4c3)cc2)CC1`: the half-maximal inhibitory concentration (IC50) worked out at 2.76 µM with A549 [1] and 2.2 µM in the series on A-431.
For `CN1CCN(C(=O)c2ccc(NC(=O)Nc3ccc4ncnc(Nc5cccc(C(F)(F)F)c5)c4c3)cc2)CC1`, the IC50 is 8.31 µM in the series with A549 [1] and over 10 µM in the series on A-431.
On to `O=C(Nc1ccc(CN2CCCCC2)cc1)Nc1ccc2ncnc(Nc3cccc(C(F)(F)F)c3)c2c1`, for which the IC50 in the series on A549 [1] amounted to 1.05 µM; in series [3], 0.005 µM; in the series with A-431 it was 1.55 µM; in series [4] it was 0.0105 µM.
On to `O=C(Nc1ccc(CN2CCOCC2)cc1)Nc1ccc2ncnc(Nc3cccc(C(F)(F)F)c3)c2c1`, for which the IC50 in the series on A549 [1] was determined as 4.03 µM; with A-431, 8.49 µM.
For `CN1CCN(C(=O)c2ccc(NC(=O)Nc3ccc4ncnc(Nc5ccc(OCc6cccc(F)c6)c(Cl)c5)c4c3)cc2)CC1` the same measures were 7.39 µM and over 10 µM.
As for `CN1CCN(CCNC(=O)Nc2ccc3ncnc(Nc4cccc(C(F)(F)F)c4)c3c2)CC1`, the IC50 with A549 [1] and in the series with A-431 was over 10 µM throughout.
Consider `C[C@@H](Nc1ncnc2ccc(NC(=O)Nc3ccc(CN4CCN(C)CC4)cc3)cc12)c1ccccc1`, for which the IC50 in the series with A549 [1] and in the series with A-431 was over 10 µM throughout.
Turning to `CN1CCN(Cc2ccc(NC(=O)Nc3ccc4ncnc(Nc5ccc(F)c(Cl)c5)c4c3)cc2)CC1`, the IC50 in the series on A549 [1] worked out at 3.48 µM; in the series with A-431, 4 µM.
`C#Cc1cccc(Nc2ncnc3ccc(NC(=O)Nc4ccc(CN5CCN(C)CC5)cc4)cc23)c1`: the IC50 came out at 5.17 µM with A549 [1] and 2.81 µM in the series on A-431.
Regarding `COC(=O)c1cccc(Nc2ncnc3ccc(NC(=O)Nc4ccc(CN5CCN(C)CC5)cc4)cc23)c1`, the results for the IC50 in the series on A549 [1] and in the series with A-431 were over 10 µM and 5.63 µM, respectively.
`CN1CCN(Cc2ccc(NC(=O)Nc3ccc4ncnc(Nc5ccc(F)c(F)c5)c4c3)cc2)CC1`: the half-inhibitory concentration (IC50) in the series on A549 [1] and in the series on A-431 was over 10 µM each time.
For the compound `COc1ccc(NC(=O)Nc2ccc3ncnc(Nc4cccc(C(F)(F)F)c4)c3c2)cc1`, the IC50 with A549 [1] amounted to 9.47 µM; in the series on A-431 it was 4.95 µM.
For the compound `CN(C)Cc1ccc(NC(=O)Nc2ccc3ncnc(Nc4cccc(C(F)(F)F)c4)c3c2)cc1`, the IC50 with A549 [1] came out at 1.12 µM; with A-431, 1.03 µM.
Consider `CN1CCN(Cc2ccc(NC(=O)Nc3ccc4ncnc(Nc5ccc(OCc6cccc(F)c6)c(Cl)c5)c4c3)cc2)CC1`, for which the IC50 in the series with A549 [1] was 0.9 µM; in series [5], over 1 µM; in the series with A-431 it was 0.64 µM.
As to `CN1CCN(Cc2ccc(NC(=O)Nc3ccc4ncnc(Nc5cccc(C(F)(F)F)c5)c4c3)cc2)CC1`, the IC50 is 1.65 µM with A549 [1] and 2.41 µM with A-431.
On to `Cc1ccc(NC(=O)Nc2ccc3ncnc(Nc4cccc(C(F)(F)F)c4)c3c2)cc1`, for which the half-maximal inhibitory concentration (IC50) with A549 [1] is 4.14 µM; in the series with A-431, over 10 µM.
Turning to `O=C(Nc1ccc(CN2CCCC2)cc1)Nc1ccc2ncnc(Nc3cccc(C(F)(F)F)c3)c2c1`, the Activity entry in the series with Mus musculus is reported as “Non-toxic”. The IC50 in the series on A549 [1] is 0.83 µM; in series [3] it was 0.0041 µM; in series [5], 0.565 µM; with A-431, 1.36 µM; in series [4] it was 0.0115 µM. The result in the series on A549 [2] was Active.
For `O=C(Nc1ccc(C(=O)N2CCOCC2)cc1)Nc1ccc2ncnc(Nc3ccc(F)c(Cl)c3)c2c1`, the IC50 in the series with A549 [1] and in the series with A-431 was over 10 µM in each case.
